Test results from PubChem BioAssay (NCI).
“And” between values parts separate entries of the source, which are not always exact repeats. Equal entries are not always repeated.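 Protocol summary: plate cells (96-well), add compound at 5 concentrations, incubate 48 h, interpolate endpoints linearly. The concentration for 50% growth inhibition is given as GI50. TGI: concentration producing complete growth inhibition.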

What was measured:
Assay in all cases: inhibition of tumour cell growth, NCI panel, 48 h
K-562 leukemia = tested on: K-562 leukemia
HOP-92 NSCLC = tested on: HOP-92 NSCLC
NCI-H23 lung = tested on: NCI-H23 lung
HS 578T breast = tested on: HS 578T breast
HCT-15 colon = tested on: HCT-15 colon
MDA-MB-231 breast = tested on: MDA-MB-231 breast
SK-MEL-2 melanoma = tested on: SK-MEL-2 melanoma
OVCAR-3 ovarian = tested on: OVCAR-3 ovarian
SF-268 CNS = tested on: SF-268 CNS
TK-10 renal = tested on: TK-10 renal

Compound | GI50 (K-562 leukemia) | TGI (K-562 leukemia) | GI50 (HOP-92 NSCLC) | TGI (HOP-92 NSCLC) | GI50 (NCI-H23 lung) | TGI (NCI-H23 lung) | GI50 (HS 578T breast) | TGI (HS 578T breast) | GI50 (HCT-15 colon) | TGI (HCT-15 colon) | GI50 (MDA-MB-231 breast) | TGI (MDA-MB-231 breast) | GI50 (SK-MEL-2 melanoma) | TGI (SK-MEL-2 melanoma) | GI50 (OVCAR-3 ovarian) | TGI (OVCAR-3 ovarian) | GI50 (SF-268 CNS) | TGI (SF-268 CNS) | GI50 (TK-10 renal) | TGI (TK-10 renal)
CN(C)CC(C(=O)Cc1ccccc1)c1ccccc1 (stereo unspecified) | 1.62 µM | > 100 µM | 2.78 µM | 7.5 µM | 12.2 µM | 30.5 µM | 3.16 µM | 9.83 µM | 1.76 µM | 3.95 µM | 3.48 µM | 11 µM | 2.54 µM | 5.57 µM | 1.9 µM | 3.48 µM | 8.25 µM | 22.6 µM | 1.56 µM | 3.1 µM
CN1CCN(c2nc(NCCCNc3ccnc4cc(Cl)ccc34)c3ccccc3n2)CC1 | 2.64 µM | 10.9 µM | 2.07 µM | 6.43 µM | 10.6 µM | 24 µM | 3.35 µM | 19 µM | 5.33 µM | 18.8 µM | 2.76 µM | 8.94 µM | 3.18 µM | 9.09 µM | 6.93 µM | 21.6 µM | 4.71 µM | 19.2 µM | 10.8 µM | 26.2 µM
Cc1ccc(C(SCC(N)C(=O)O)(c2ccccc2)c2ccccc2)cc1 (stereo unspecified) | 0.0485 µM | > 100 µM | 0.288 µM | 73.1 µM | 0.236 µM | > 96 µM | 0.0371 µM | 0.913 µM | 0.218 µM | > 49.4 µM | 0.0381 µM | 0.571 µM | 2.75 µM | 98 µM | 0.0391 µM | 0.158 µM | 0.0612 µM | 31.9 µM | 1.22 µM | > 100 µM
C=C(CC(=O)O)C(=O)O (tested in a mixture with another compound) | > 50 µg/mL | > 50 µg/mL | > 50 µg/mL | > 50 µg/mL | > 50 µg/mL | > 50 µg/mL | > 50 µg/mL | > 50 µg/mL | > 50 µg/mL | > 50 µg/mL | > 50 µg/mL | > 50 µg/mL | > 50 µg/mL | > 50 µg/mL | > 50 µg/mL | > 50 µg/mL | > 50 µg/mL | > 50 µg/mL | > 50 µg/mL | > 50 µg/mL
COc1cc(-c2cc(/C=C/C(=O)c3ccc(Cl)c(Cl)c3)[nH]n2)cc(OC)c1OC | 4.96 µM | 64.4 µM | 2.53 µM | 8.25 µM | 23.4 µM | > 100 µM | 16.6 µM | > 100 µM | 4.29 µM |  | 8.65 µM | > 100 µM | 13.9 µM | 34.1 µM | 6.99 µM | 37.8 µM | 13.7 µM | 63.3 µM | 8.34 µM | 43.2 µM
C/C(=N\NC(=S)N1CC2CCC(CC2)C1)c1cccc(C)n1 | < 0.0001 µM |  |  | 16.4 µM |  | 19.4 µM |  | 27 µM | 0.307 µM | 17.4 µM |  | 17.8 µM |  | 21.4 µM | 0.00014 µM | 9.75 µM |  | 13 µM | 0.786 µM | 16.1 µM
Cc1[nH]c(-c2nc3ccccc3[nH]2)c(C)c1C(=O)NC(C)C1CCCCC1 (stereo unspecified) | 3.45 µM | > 100 µM | 10.2 µM | 25.3 µM | 12.6 µM | 31.5 µM | 8.88 µM | 30.9 µM | 4.77 µM | 19.6 µM | 10.4 µM | 29.4 µM | 10.1 µM | 25.5 µM | 9.72 µM | 21.6 µM | 11.9 µM | 30.9 µM | 21.5 µM | 41.6 µM
O=C(O)CCc1c2ccc(=O)c(O)c-2oc2c(O)c(O)ccc12 |  | 55.2 µM |  | > 100 µM |  | > 100 µM |  | > 100 µM |  | > 100 µM |  | 62.9 µM |  | > 100 µM |  | > 100 µM |  | > 100 µM |  | > 100 µM
O=c1c(Br)cc2c(-c3ccccc3)c3cc(Br)c(O)c(Br)c3oc-2c1Br |  | > 100 µM |  | > 100 µM |  | > 100 µM |  | > 100 µM |  | > 100 µM |  | > 100 µM |  |  |  | > 100 µM |  | > 100 µM |  | > 100 µM
Cc1ccc(C2=C(c3ccccc3)C(c3ccccc3)Oc3ccc(C)cc32)cc1 (stereo unspecified) | 8.29 µM | 42.7 µM | 11.4 µM | 28.1 µM | 2.2 µM | 5.53 µM | 2.74 µM | 10.1 µM | 16.9 µM | 35.8 µM | 13 µM | 30.5 µM | 1.9 µM | 3.98 µM | 12.4 µM | 32.7 µM | 13.2 µM | 38.7 µM | 13.7 µM | 32.4 µM
O=C1C(=O)c2ccccc2C(O)=C1CCCc1ccc(C2CCCCCC2)cc1 | 0.447 µM | > 34.8 µM | 3.01 µM | 24.9 µM | 0.649 µM | 15.8 µM | 4.84 µM | 57.8 µM | 0.539 µM | > 85.9 µM | 5.76 µM | 42.2 µM | 1.12 µM | 21.4 µM | 0.781 µM | 16.3 µM | 0.625 µM | 26.7 µM | 3.14 µM | 57 µM
CC(C)n1nc(-c2ccc3oc(N)nc3c2)c2c(N)ncnc21 | 0.0431 µM and 0.0376 µM | > 100 µM | < 0.01 µM | < 0.01 µM | 0.0268 µM and 0.0176 µM | 8.16 µM and 2.39 µM | < 0.01 µM | 0.0323 µM and 0.0517 µM | 0.0126 µM and 0.0164 µM | 11.3 µM and > 35.2 µM | 0.0165 µM and 0.0211 µM | 1.97 µM and 1.7 µM | 0.0194 µM and 0.0157 µM | 0.581 µM and 0.113 µM | < 0.013 µM and 0.012 µM | 0.411 µM and 0.759 µM | 0.0151 µM and 0.0154 µM | 2.88 µM and 1.85 µM | < 0.0113 µM and 0.0112 µM | 0.24 µM and 0.0897 µM
NC(N)=Nc1nc2ccc([N+](=O)[O-])cc2[nH]1 |  | > 100 µM |  | > 100 µM |  | > 100 µM |  | > 100 µM |  | > 100 µM |  | > 100 µM |  | > 100 µM |  | > 100 µM |  | > 100 µM |  | > 100 µM
CCOC(=O)c1oc2ccc([N+](=O)[O-])c3c2c1CCC3 |  | > 100 µM |  | 71 µM |  | > 100 µM |  | > 85 µM |  | > 100 µM |  | > 100 µM |  | > 100 µM |  | > 100 µM |  | 72.2 µM |  | 85.9 µM
